Results reported in PubChem BioAssay (NCI).
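48-hour exposure; five concentrations; linearly interpolated endpoints. The concentration for 50% growth inhibition is given as GI50. TGI: concentration producing complete growth inhibition.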

Legend:
Test in all cases: growth of human tumour cells (NCI), 48 h
[1] = test system: SR leukemia
[2] = test system: CCRF-CEM leukemia
[3] = test system: SK-OV-3 ovarian
[4] = test system: UACC-257 melanoma
[5] = test system: UACC-62 melanoma
[6] = test system: DU-145 prostate
[7] = test system: EKVX NSCLC
[8] = test system: MDA-N
[9] = test system: SNB-75 CNS
[10] = test system: CAKI-1 renal
[11] = test system: MDA-MB-231 breast
[12] = test system: MALME-3M melanoma
[13] = test system: NCI-H23 lung
[14] = test system: HOP-92 NSCLC
[15] = test system: TK-10 renal
[16] = test system: OVCAR-8 ovarian
[17] = test system: SF-295 CNS
[18] = test system: SN12C renal
[19] = test system: MCF7 breast
[20] = test system: IGROV1 ovarian
[21] = test system: SK-MEL-5 melanoma
[22] = test system: KM12 colon
[23] = test system: COLO 205 colon
[24] = test system: HT29 colon
[25] = test system: 786-0 renal
[26] = test system: K-562 leukemia
[27] = test system: MOLT-4 leukemia
[28] = test system: OVCAR-4 ovarian
[29] = test system: SK-MEL-28 melanoma
[30] = test system: RPMI-8226 leukemia
[31] = test system: HCT-15 colon
[32] = test system: SF-268 CNS
[33] = test system: HL-60(TB) leukemia
[34] = test system: T-47D breast
[35] = test system: A549 NSCLC
[36] = test system: RXF 393 renal
[37] = test system: MDA-MB-435
[38] = test system: HOP-62 NSCLC
[39] = test system: SW-620 colon
[40] = test system: HCC-2998 colon
[41] = test system: M14 melanoma
[42] = test system: NCI-H460 lung
[43] = test system: ACHN renal
[44] = test system: OVCAR-3 ovarian
[45] = test system: A498 renal
[46] = test system: LOX IMVI melanoma
[47] = test system: SNB-19 CNS
[48] = test system: SK-MEL-2 melanoma
[49] = test system: NCI-H226 lung
[50] = test system: NCI-H522 lung
[51] = test system: PC-3 prostate
[52] = test system: UO-31 renal
[53] = test system: NCI/ADR-RES ovarian
[54] = test system: HCT-116 colon
[55] = test system: HS 578T breast
[56] = test system: OVCAR-5 ovarian
[57] = test system: U251 CNS
[58] = test system: SF-539 CNS
[59] = test system: BT-549 breast

CCN1CCNc2c3cc(OC)ccc3nc3c([N+](=O)[O-])ccc1c23
TGI [1]: 1.16 µM
TGI [2]: 3.22 µM
TGI [3]: > 10 µM
TGI [4]: 3.7 µM
TGI [5]: 4.58 µM
TGI [6]: > 10 µM
TGI [7]: 6.13 µM
TGI [8]: 2.1 µM
TGI [9]: 4.38 µM
TGI [10]: > 10 µM
TGI [11]: 4.56 µM
TGI [12]: 2.29 µM
TGI [13]: 5.46 µM
TGI [14]: 4.57 µM
TGI [15]: > 10 µM
TGI [16]: > 10 µM
TGI [17]: 5.55 µM
TGI [18]: 5.74 µM
TGI [19]: 6.51 µM
TGI [20]: > 10 µM
TGI [21]: 2.53 µM
TGI [22]: 3.42 µM
TGI [23]: 5.39 µM
TGI [24]: > 10 µM
TGI [25]: 9.61 µM
TGI [26]: > 10 µM
TGI [27]: 1.34 µM
TGI [28]: 4.33 µM
TGI [29]: 5.93 µM
TGI [30]: 3.25 µM
TGI [31]: 4.29 µM
TGI [32]: > 10 µM
TGI [33]: 2.37 µM
TGI [34]: > 10 µM
TGI [35]: > 10 µM
TGI [36]: 2.01 µM
TGI [37]: 2.2 µM
TGI [38]: 3.83 µM
TGI [39]: > 10 µM
TGI [40]: 2.14 µM

Cc1c(C(=O)O[C@H]2[C@@H]3[C@H](C)CC[C@H]3[C@]3(C)O[C@@]2(C2CCCCC2)C[C@H]3OC(=O)CO)ccc2ccccc12
GI50 [41]: 7.92 µM
TGI [41]: 16.7 µM
GI50 [1]: 7.36 µM
TGI [1]: 18.3 µM
GI50 [2]: 9.13 µM
TGI [2]: 20.9 µM
GI50 [3]: 9.19 µM
TGI [3]: 17.1 µM
GI50 [42]: 7.87 µM
TGI [42]: 16.6 µM
GI50 [43]: 0.0589 µM
TGI [43]: 0.766 µM
GI50 [4]: 7.83 µM
TGI [4]: 14.8 µM
GI50 [5]: 7.97 µM
TGI [5]: 15.1 µM
GI50 [6]: 7.77 µM
TGI [6]: 14.6 µM
GI50 [7]: 6.94 µM
TGI [7]: 14.2 µM
GI50 [44]: 7.57 µM
TGI [44]: 14.4 µM
GI50 [45]: 0.0173 µM
TGI [45]: 0.144 µM
GI50 [46]: 7.45 µM
TGI [46]: 14.2 µM
GI50 [9]: 2.98 µM
TGI [9]: 11 µM
GI50 [10]: 0.244 µM
TGI [10]: 6.82 µM
GI50 [11]: 8 µM
TGI [11]: 16.7 µM
GI50 [12]: 7.24 µM
TGI [12]: 14.5 µM
GI50 [13]: 8.29 µM
TGI [13]: 17.7 µM
GI50 [14]: 4.19 µM
TGI [14]: 10.4 µM
GI50 [15]: 8.12 µM
TGI [15]: 15.4 µM
GI50 [16]: 6.64 µM
TGI [16]: 13.8 µM
GI50 [47]: 8.56 µM
TGI [47]: 15.6 µM
GI50 [48]: 9.19 µM
TGI [48]: 16.7 µM
GI50 [17]: 7.04 µM
TGI [17]: 13.6 µM
GI50 [49]: 7.67 µM
TGI [49]: 15.1 µM
GI50 [50]: 7.11 µM
TGI [50]: 13.8 µM
GI50 [18]: 0.157 µM
TGI [18]: 8.36 µM
GI50 [19]: 7.38 µM
TGI [19]: 15.9 µM
GI50 [51]: 6.96 µM
TGI [51]: 15.6 µM
GI50 [52]: 0.408 µM
TGI [52]: 7.96 µM
GI50 [20]: 8.39 µM
TGI [20]: 17.3 µM
GI50 [53]: 5.65 µM
TGI [53]: 12.8 µM
GI50 [21]: 7.28 µM
TGI [21]: 13.8 µM
GI50 [54]: 7.57 µM
TGI [54]: 14.5 µM
GI50 [22]: 8.35 µM
TGI [22]: 17.4 µM
GI50 [23]: 9.2 µM
TGI [23]: 17.5 µM
GI50 [24]: 7.07 µM
TGI [24]: 14.2 µM
GI50 [25]: 6.52 µM
TGI [25]: 13.1 µM
GI50 [26]: 11 µM
TGI [26]: 27 µM
GI50 [27]: 7.15 µM
TGI [27]: 17.7 µM
GI50 [55]: 0.0165 µM
TGI [55]: 0.142 µM
GI50 [56]: 9.5 µM
TGI [56]: 17.8 µM
GI50 [28]: 7.6 µM
TGI [28]: 14.3 µM
GI50 [57]: 7.43 µM
TGI [57]: 13.9 µM
GI50 [29]: 8.44 µM
TGI [29]: 15.8 µM
GI50 [30]: 8.89 µM
TGI [30]: 20.6 µM
GI50 [58]: 7.65 µM
TGI [58]: 14.9 µM
GI50 [31]: 7.86 µM
TGI [31]: 15.2 µM
GI50 [32]: 3.49 µM
TGI [32]: 11.8 µM
GI50 [33]: 9.3 µM
TGI [33]: 20 µM
GI50 [34]: 5.37 µM
TGI [34]: 11.6 µM
GI50 [59]: 5.28 µM
TGI [59]: 12.7 µM
GI50 [35]: 7.11 µM
TGI [35]: 13.7 µM
GI50 [36]: 0.164 µM
TGI [36]: 7.12 µM
GI50 [37]: 8.15 µM
TGI [37]: 15.4 µM
GI50 [38]: 8.48 µM
TGI [38]: 15.3 µM
GI50 [39]: 8.01 µM
TGI [39]: 16.3 µM
GI50 [40]: 8.09 µM
TGI [40]: 15.8 µM
